Patent US10851132B2, “Protein based adhesive composition and method” (SEWON BIOTECHNOLOGY INC., priority 2015, dated 2020)
Ends that are not written are not given here.

Assays:
MC3T3-E1 = assay: Comparative cell attachment experiment with soluble RGDs (CCK-8); type: cell-based, Mouse; settings: RGDs peptides used alone, 0-1000 μM; FIG. 4C
Method: The present peptide A7-1 (10 μM) or A7-1 together with soluble RGDs peptide (0, 10, 100 and 1000 μM) for competition assay were added to anchorage dependent cells MC3T3-E1 in a test tube and incubated for 10 min. Then the cells were transferred to a culture plate and incubated for 10 min in a thermostatic incubator to allow the cells to attach. After 10 min, the medium was removed and the cells were washed 2 times with PBS to remove any unattached cells and a fresh medium without the peptide and CCK-8 (Dojindo) were added to the cells and incubated for 1 hr in a thermostatic incubator. Then the absorbance was measured at 450 nm. The medium mixed with CCK-8 only was used as a blank.

[1] = Affinity chromatography with heparin-agarose beads; type: binding; settings: Examples 11 and 12; FIG. 11, FIG. 12
Method: (§1) For chromatography, heparin-agarose beads (Biovision) and GlcNAc-agarose beads (Sigma) were used. 10 ng of FITC labelled peptide (F-peptide) was mixed in PBS-T buffer with heparin-agarose beads and GlcNAc-agarose beads, each precoated with BSA, and incubated at RT for 10 min. Then the mixture was washed 3 times with PBS-T buffer and resuspended in PBS for fluorescent measurement. For competitive binding experiments, the present peptide not labelled with FITC (Cold) was added to the mixture at various ratios of 1:1, 1:10 (10 times) and 1:100 (100 times) and allowed for incubation followed by fluorescent measurement. As a negative control, only FITC dyes were used to react with the beads. Further fluorescent signals from a sample containing just beads suspended in PBS were used as a blank.
(§2) The peptides as listed and described in Table 2 were synthesized as described in Example 1 and tested for its adhesiveness to heparin and N-Acetylglucosamine (GAG) according to the methods described in Example 5.

[2] = Affinity chromatography with GlcNAc-agarose beads; type: binding; settings: Examples 11 and 12; FIG. 11, FIG. 12
Method: as §1, §2

osteoblast MC3TC-E1 = assay: Safety in osteoblasts: proliferation, viability, differentiation; type: cell-based, Mouse; settings: 0.1, 1, 10 and 100 μM
Method: The safety of the present peptides was determined using osteoblast MC3TC-E1. Osteoblasts were treated with A7-1 peptide as prepared in Example 1 at the concentration of 0.1 μM, 1 μM, 10 μM and 100 μM. Then the effect of the present peptide on the proliferation (FIG. 8A), viability (FIG. 8B) and differentiation (FIG. 8C) on the cells was examined. For testing the effect on the […], MC3T3-E1 and C2C12 cell lines were treated with BMP (rhBMP2, 10 ng/ml for 3 days) and differentiation medium for bone formation for 6 days to induce differentiation. The results were examined by cell staining. It is observed that the present peptide has no effect on the proliferation rate, viability rate or whether or not the cells are differentiated.

Substance: RGDs: soluble RGDs peptides used as a competitor; binds to adhesive molecule integrins (RGDS)
- adhesiveness of the cells (MC3T3-E1): decreased in a concentration dependent manner

Substance: KQLVVKFRALPC [SEQ ID NO: 21]
- adhesiveness to heparin [1]: working
- adhesiveness to N-Acetylglucosamine (GAG) [2]: working

Substance: RQLVVKFRALPC [A7-1]
- effect on proliferation rate (osteoblast MC3TC-E1; FIG. 8A): no effect
- effect on viability rate (osteoblast MC3TC-E1; FIG. 8B): no effect
- effect on whether or not the cells are differentiated (osteoblast MC3TC-E1; FIG. 8C): no effect
